Measured values: US8278337B2, “Substituted pyridines that are JNK inhibitors” (Merck Sharp & Dohme, priority 2006, dated 2012)
pIC50: −log10 of the molar value. “And” between values parts separate entries of the source, which are not always exact repeats. Equal values may be shown once. Read-outs that look alike come from different tables or passages of the source.

Legend:
Assay type in all cases: biochemical
[1] = molecular target: JNK1 (Homo sapiens, UniProt P45983); assay: DELFIA kinase assay, JNK1
JNK1, sequence (P45983 whole entry, species assumed): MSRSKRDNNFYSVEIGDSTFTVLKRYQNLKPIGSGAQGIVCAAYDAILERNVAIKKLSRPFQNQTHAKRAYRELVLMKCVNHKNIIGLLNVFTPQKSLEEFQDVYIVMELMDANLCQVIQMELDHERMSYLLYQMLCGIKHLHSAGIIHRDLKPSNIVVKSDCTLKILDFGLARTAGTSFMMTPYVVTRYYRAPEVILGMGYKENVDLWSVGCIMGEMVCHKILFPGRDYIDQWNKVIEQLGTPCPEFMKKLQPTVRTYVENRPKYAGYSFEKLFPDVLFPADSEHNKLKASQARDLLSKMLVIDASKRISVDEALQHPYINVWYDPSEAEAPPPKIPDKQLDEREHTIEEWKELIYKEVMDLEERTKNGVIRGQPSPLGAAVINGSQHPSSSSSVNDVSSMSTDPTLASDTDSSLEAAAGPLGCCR
Method in brief: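 Enzyme (2 nM JNK1) was preincubated 10 min with 0–100 μM compound in HEPES pH 7.3 with 5% DMSO, then reacted 30 min at room temperature with biotinylated GST-ATF2 (6 ug/mL). Final ATP was 7 uM for JNK1, 4 uM for JNK2 and 2 uM for JNK3. Phospho-ATF2 was detected by DELFIA europium fluorescence (ex 340, em 615 nm).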

[2] = molecular target: JNK2 (Homo sapiens, UniProt P45984); assay: DELFIA kinase assay, JNK2
JNK2, sequence (P45984 whole entry, species assumed): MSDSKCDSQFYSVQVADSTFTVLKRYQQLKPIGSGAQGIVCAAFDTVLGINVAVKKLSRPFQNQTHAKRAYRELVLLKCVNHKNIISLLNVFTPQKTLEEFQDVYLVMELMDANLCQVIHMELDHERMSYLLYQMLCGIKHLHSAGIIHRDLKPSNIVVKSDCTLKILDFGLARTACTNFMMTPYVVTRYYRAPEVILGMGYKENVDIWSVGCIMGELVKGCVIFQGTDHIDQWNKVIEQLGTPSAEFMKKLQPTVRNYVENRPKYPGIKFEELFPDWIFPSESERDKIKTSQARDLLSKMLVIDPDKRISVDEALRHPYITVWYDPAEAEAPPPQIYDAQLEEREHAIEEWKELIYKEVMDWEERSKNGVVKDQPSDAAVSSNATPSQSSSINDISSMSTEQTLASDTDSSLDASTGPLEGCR
Protocol: (§1) Assay DELFIA (Dissociation Enhanced Lanthanide Fluorescence Immuno-Assay) Assay:
(§2) Before initiation of kinase reactions, compounds were pre-incubated with the enzyme for 10 minutes. Pre-incubation reactions contained 50 mM HEPES pH 7.3, 10 mM MgCl2, 1 mM DTT, 75 mM NaCl, 1 mM EDTA, 1 mM EGTA, 0.01% CHAPS, 2 nM JNK1, 6 ug/mL biotinylated GST-ATF2, 0.1 mg/ml BSA, 5% DMSO and 0-100 μM compound in a total volume of 40 μL. After a 10 minute room temperature pre-incubation, 10 μL of 35 μM ATP was added to start the reaction (final concentration of ATP=7 uM). Reactions were incubated at room temperature for 30 minutes. A small aliquot (10 uL) was taken and quenched by adding into 190 uL of DELFIA Assay buffer containing 100 mM EDTA. The amount of phosphate transferred to biotinylated GST-ATF2 was measured using the Dissociation Enhanced Lanthanide Fluorescence Immuno-assay (DELFIA) from Perkin Elmer according to manufacturers protocol. Briefly, biotinylated GST-ATF2 was captured on streptavidin coated plates for 1 hour, washed twice, then incubated for 1 hour with a 1:1000 dilution of rabbit-anti-phospho-ATF2 antibody and a 1:3500 dilution of Europium-labeled anti-rabbit secondary antibody. Free antibody was removed with six washes, Europium was dissociated from the antibody, and Europium fluorescence was measured using an excitation wavelength of 340 nm and an emission wavelength of 615 nm. JNK2 and JNK3 kinase reactions were carried out similarly, with the exception that the final concentration of ATP was 4 uM and 2 uM, respectively.

[3] = molecular target: JNK3 (Homo sapiens, UniProt P53779); assay: DELFIA kinase assay, JNK3
JNK3, sequence (P53779 whole entry, species assumed): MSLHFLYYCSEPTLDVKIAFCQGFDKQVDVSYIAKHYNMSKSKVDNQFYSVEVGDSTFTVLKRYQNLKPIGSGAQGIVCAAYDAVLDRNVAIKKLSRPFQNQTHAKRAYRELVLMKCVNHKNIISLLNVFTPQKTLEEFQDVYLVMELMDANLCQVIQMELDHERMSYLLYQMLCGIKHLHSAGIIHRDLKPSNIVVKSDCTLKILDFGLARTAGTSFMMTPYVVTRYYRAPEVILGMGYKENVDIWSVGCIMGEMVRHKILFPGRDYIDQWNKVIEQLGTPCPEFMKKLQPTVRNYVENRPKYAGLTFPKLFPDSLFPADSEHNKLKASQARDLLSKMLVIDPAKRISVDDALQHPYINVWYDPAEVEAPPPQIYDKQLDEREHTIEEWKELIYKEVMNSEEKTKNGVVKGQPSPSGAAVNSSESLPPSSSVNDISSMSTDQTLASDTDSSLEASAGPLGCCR
Protocol: as §1, §2

[4] = DELFIA, biotinylated GST-ATF2 substrate, 10 minute pre-incubation, final ATP 7 uM
[5] = DELFIA, biotinylated GST-ATF2 substrate, final ATP 4 uM
[6] = DELFIA, biotinylated GST-ATF2 substrate, final ATP 2 uM
[7] = DELFIA assay, 2 nM JNK1, 7 uM ATP, 10 min pre-incubation
[8] = DELFIA assay, 2 nM JNK1, 7 uM ATP, 10 min pre-incubation, second table, read-out: JNK 1 IC50

CC(C)NC(=O)c1cccc(C(=O)NCc2cnn(-c3cccc(C(F)(F)F)c3)c2)n1 [Compound 140]
pIC50 [1, 4]: 7.72 to 8.40 and 7.01 to 8.40 and 7.89 | pIC50 [2, 5]: 7.96 | pIC50 [3, 6]: 8.05

CC(C)NC(=O)c1cccc(C(=O)NCc2cnn(-c3cccc(C#N)c3)c2)n1 [Compound 134]
pIC50 [1, 7]: 7.82 | pIC50 [1, 4]: 7.72 to 8.40 and 7.01 to 8.40 | pIC50 ([2]; DELFIA assay): 7.70 | pIC50 ([3]; DELFIA assay): 7.70

CC(C)NC(=O)c1cccc(C(=O)NCc2cnn(-c3cnc4cccnc4c3)c2)n1 [Compound 222]
pIC50 [1, 7]: 7.74 | pIC50 [1, 8]: 7.74 | pIC50 [1, 4]: 7.01 to 8.40 and 7.72 to 8.40 | pIC50 ([2]; DELFIA assay): 8.10 | pIC50 ([3]; DELFIA assay): 8.00

CC(C)NC(=O)c1cccc(C(=O)NCc2cnn(-c3ccc(S(C)(=O)=O)cc3)c2)n1 [Compound 137]
pIC50 [1, 7]: 7.89 | pIC50 [1, 4]: 7.72 to 8.40 and 7.01 to 8.40 | pIC50 ([2]; DELFIA assay): 8.52 | pIC50 ([3]; DELFIA assay): 7.92

CC(C)NC(=O)c1cccc(C(=O)NCc2cnn(-c3ccc(C#N)cc3)c2)n1 [Compound 135]
pIC50 [1, 4]: 7.01 to 8.40 and 7.57 | pIC50 [2, 5]: 7.32 | pIC50 [3, 6]: 7.80

CC(C)NC(=O)c1cccc(C(=O)NCc2cnn(-c3ccc4ncccc4c3)c2)n1 [Compound 142]
pIC50 [1, 4]: 7.72 to 8.40 and 7.01 to 8.40 and 8.22 | pIC50 [2, 5]: 8.10 | pIC50 [3, 6]: 8.05

CC(C)NC(=O)c1cccc(C(=O)NCc2cnn(-c3ccc(S(=O)(=O)N(C)C)cc3)c2)n1 [Compound 152]
pIC50 [1, 4]: 7.72 to 8.40 and 7.01 to 8.40 and 7.96 | pIC50 [2, 5]: 8.10 | pIC50 [3, 6]: 8.05

CC(C)NC(=O)c1cccc(C(=O)NCc2cnn(-c3cc(Cl)cc(Cl)c3)c2)n1 [Compound 138]
pIC50 [1, 4]: 7.72 to 8.40 and 7.01 to 8.40

CS(=O)(=O)c1ccc(CNC(=O)c2cccc(-c3ccc4c(c3)OCO4)n2)cc1 [Compound 332]
pIC50 [1, 4]: 6.02 to 6.99

O=C(NCc1cnn(-c2cccc(C(F)(F)F)c2)c1)c1cccc(N2CCCC2)n1 [Compound 343]
pIC50 [1, 4]: 5.00 to 5.99 and < 6.00

CC(C)NC(=O)c1cccc(C(=O)NCc2cnn(-c3ccc([S+](C)[O-])cc3)c2)n1 (centres unmarked) [Compound 154]
pIC50 [1, 4]: 7.01 to 8.40

Cc1nc2ccc(-n3cc(CNC(=O)c4cccc(C(=O)NC(C)C)n4)cn3)cc2n1C [Compound 233]
pIC50 [1, 7]: 7.77 | pIC50 [1, 8]: 7.77 | pIC50 [1, 4]: 7.72 to 8.40 and 7.01 to 8.40 | pIC50 ([2]; DELFIA assay): 7.96 | pIC50 ([3]; DELFIA assay): 7.92

C[C@@H](CNC(=O)c1cccc(C(=O)NCc2ccc3nc(N)sc3c2)n1)c1ccccc1 [Compound 70]
pIC50 [1, 4]: 6.02 to 6.99

CCOC(=O)N1CCC(NC(=O)c2cccc(Nc3cccnc3)n2)CC1 [Compound 388]
pIC50 [1, 4]: < 6.00

CC(C)NC(=O)c1cccc(C(=O)NCc2cnn(-c3ccc(F)c(C(F)(F)F)c3)c2)n1 [Compound 150]
pIC50 [1, 4]: 7.01 to 8.40

CCOC(=O)N1CCC(NC(=O)c2cccc(NCC3CCNCC3)n2)CC1 [Compound 395]
pIC50 [1, 4]: < 6.00

CCOC(=O)N1CCC(NC(=O)c2cccc(C(=O)NCc3ccncc3)n2)CC1 [Compound 42]
pIC50 [1, 4]: < 6.00

CS(=O)(=O)c1ccc(CNC(=O)c2cccc(-n3ncc4ccccc43)n2)cc1 [Compound 322]
pIC50 [1, 4]: 6.02 to 6.99

CS(=O)(=O)c1ccc(CNC(=O)c2cccc(-n3cc(-c4ccc(F)cc4)cn3)n2)cc1 [Compound 321]
pIC50 [1, 4]: < 6.00 and 5.00 to 5.99
